Data reported in ChEMBL document CHEMBL1151435, “Antileishmanial structure-activity relationships of synthetic phospholipids: in vitro and in vivo activities of selected derivatives” (Antimicrob Agents Chemother, 2007).

Columns and labels:
Leishmania donovani [1] = experiment: Antileishmanial activity against intracellular Leishmania donovani MHOM/ET/67/HU3 amastigotes infected in peritoneal macrophages of Mesocricetus auratus by drug sensitivity assay; assay type: functional, organism-based
Leishmania donovani [2] = experiment: Activity ratio of compound EC50 to miltefosine EC50 for intracellular Leishmania donovani MHOM/ET/67/HU3 amastigotes infected in peritoneal macrophages of Mesocricetus auratus; assay type: functional
Leishmania donovani [3] = experiment: Antileishmanial activity against Leishmania donovani MHOM/ET/67/HU3 promastigotes by drug sensitivity assay; assay type: functional, organism-based
[4] = Therapeutic index, ratio of EC50 for human THP1 cells to EC50 for intracellular Leishmania donovani MHOM/ET/67/HU3 amastigotes infected in peritoneal macrophages of Mesocricetus auratus; assay type: cell-based, THP-1; settings: read-out: TI
[5] = Therapeutic index, ratio of EC50 for human KB cells to EC50 for intracellular Leishmania donovani MHOM/ET/67/HU3 amastigotes infected in peritoneal macrophages of Mesocricetus auratus; assay type: cell-based; settings: read-out: TI
[6] = Solubility at phosphate-buffered saline of pH 7.4; assay type: physicochemical; settings: buffer
Leishmania donovani [7] = experiment: Antileishmanial activity against Leishmania donovani MHOM/ET/67/HU3 amastigotes infected in ip dosed BALB/c mouse model administered as suspension one week after infection for 5 consecutive days measured after 3 days of last dose by Giemsa staining; assay type: functional; settings: MHOM/ET/67/HU3, ip
Leishmania donovani [8] = experiment: Antileishmanial activity against Leishmania donovani MHOM/ET/67/HU3 amastigotes infected in po dosed BALB/c mouse model administered one week after infection for 5 consecutive days measured after 3 days of last dose by Giemsa staining; assay type: functional; settings: for ED50: MHOM/ET/67/HU3, po
Leishmania donovani [9] = experiment: Antileishmanial activity against Leishmania donovani MHOM/ET/67/L82 infected in po dosed BALB/c mouse model; assay type: functional; settings: MHOM/ET/67/L82, po
Leishmania donovani [10] = experiment: Antileishmanial activity against Leishmania donovani MHOM/ET/67/HU3 amastigotes infected in ip dosed BALB/c mouse model administered one week after infection for 5 consecutive days measured after 3 days of last dose by Giemsa staining; assay type: functional; settings: MHOM/ET/67/HU3, ip

Structure (SMILES): CCCCCCCCCCCCCCCCCCOP(=O)([O-])OCCC1CC[N+](Cc2ccccc2)(Cc2ccccc2)CC1.O
- EC50 (Leishmania donovani [1]): 760 nM
- Ratio EC50 (Leishmania donovani [2]): 0.23

Structure (SMILES): CCCCCCCCCCCCCCCCCCCOP(=O)([O-])OCC[N+]1(C)CCCCC1
- EC50 (Leishmania donovani [3]): 1290 nM

Structure (SMILES): CCCCCCCCC(Br)C(Br)CCCCCCCCOP(=O)([O-])OCC[N+](C)(C)C (configuration not stated)
- EC50 (Leishmania donovani [3]): 1090 nM

Structure (SMILES): CCCCCCCCCCCCCCCCCCOP(=O)([O-])OCC[N+]1(C)CCOCC1
- EC50 (Leishmania donovani [1]): 940 nM
- Ratio EC50 (Leishmania donovani [2]): 0.18

Structure (SMILES): CCCCCCCCCCCCCCCCCCOP(=O)([O-])OCC[N+]1(C)CCC(O)CC1 (configuration not stated)
- EC50 (Leishmania donovani [3]): 3060 nM
- EC50 (Leishmania donovani [1]): 1370 nM
- Ratio EC50 (Leishmania donovani [2]): 0.41

Structure (SMILES): CCCCCCCCCCCCCCCCOP(=O)([O-])OCC[N+]12CCC(CC1)CC2.O
- EC50 (Leishmania donovani [1]): 550 nM
- Ratio EC50 (Leishmania donovani [2]): 0.16

Structure (SMILES): CCCCCCCCCCCCCCCCOP(=O)([O-])OCC[N+]1(C)CCOCC1.O
- EC50 (Leishmania donovani [1]): 2460 nM
- Ratio EC50 (Leishmania donovani [2]): 0.46

Structure (SMILES): CCCCCCCCCCCCCCCCCCOP(=O)([O-])OC1CC[N+]2(CCCC2)CC1
- EC50 (Leishmania donovani [3]): 3060 nM

Structure (SMILES): CCCCCCCCCCCCCCCCOP(=O)([O-])OC1CC[N+](C)(CCc2ccccc2)CC1.O.O (configuration not stated)
- EC50 (Leishmania donovani [1]): 990 nM
- Ratio EC50 (Leishmania donovani [2]): 0.49

Structure (SMILES): CCCCCCCCCCCCCCCCCCOP(=O)([O-])OCC[N+]1(C)CCSCC1.O
- EC50 (Leishmania donovani [3]): 2370 nM
- EC50 (Leishmania donovani [1]): 1220 nM
- Ratio EC50 (Leishmania donovani [2]): 0.23

Structure (SMILES): CCCCCCCCCCCCCCCCCCSCC(COC)COP(=O)([O-])OCC[N+]1(C)CCCCC1.O (configuration not stated)
- EC50 (Leishmania donovani [3]): 3610 nM
- EC50 (Leishmania donovani [1]): 250 nM
- Ratio EC50 (Leishmania donovani [2]): 0.07

Structure (SMILES): CCCCCCCCCCCCCCCCOP(=O)([O-])OCC[N+](C)(C)c1ccccc1.O
- EC50 (Leishmania donovani [1]): 580 nM
- Ratio EC50 (Leishmania donovani [2]): 0.11

Structure (SMILES): CCCCCCCCCCCCCCCCOCCCOP(=O)([O-])OCC[N+](C)(C)C
- EC50 (Leishmania donovani [3]): 1550 nM

Structure (SMILES): CCCCCCCCCCCCCCCCOP(=O)([O-])OC1CC[N+](C)(Cc2ccccc2)CC1 (configuration not stated)
- EC50 (Leishmania donovani [1]): 410 nM
- Ratio EC50 (Leishmania donovani [2]): 0.12
- selectivity ratio [4]: > 220
- selectivity ratio [5]: 179
- solubility [6]: Soluble
- ED50 (Leishmania donovani [7]): 33 mg/kg

Structure (SMILES): CCCCCCCCCCCCCCCCCCOP(=O)([O-])OCCC1CC[N+](C)(Cc2ccccc2)CC1.O.O (configuration not stated)
- EC50 (Leishmania donovani [1]): 820 nM
- Ratio EC50 (Leishmania donovani [2]): 0.25

Structure (SMILES): CCCCCCCCCCCCCCCCOCCOCCOCCOCCOCCOCCOCCOCCOCCOCCOP(=O)([O-])OC1CC[N+](C)(C)CC1
- EC50 (Leishmania donovani [1]): 1320 nM
- Ratio EC50 (Leishmania donovani [2]): 0.4

Structure (SMILES): CCCCCCCCCCCCCCCCCC(C)OP(=O)([O-])OCC[N+](C)(C)C (configuration not stated)
- EC50 (Leishmania donovani [3]): 3350 nM

Structure (SMILES): CCCCCCCCCCCCCCCCCCOP(=O)([O-])OCC[N+](C)(C)CC
- EC50 (Leishmania donovani [3]): 2040 nM

Structure (SMILES): CCCCCCCCCCCCCCCCOP(=O)([O-])OCC[N+]1(C)CCCCC1
- EC50 (Leishmania donovani [1]): 300 nM
- Ratio EC50 (Leishmania donovani [2]): 0.09
- selectivity ratio [4]: 95.7
- selectivity ratio [5]: 23.4
- Activity (Leishmania donovani [8]): Dose-dependent effect
- ED50 (Leishmania donovani [8]): 25.5 mg/kg

Structure (SMILES): CCCCCCCCCCCCCCCCCCOP(=O)([O-])OCC[N+](C)(C)C1CC1.O
- EC50 (Leishmania donovani [3]): 1520 nM
- EC50 (Leishmania donovani [1]): 2640 nM
- Ratio EC50 (Leishmania donovani [2]): 0.5

Structure (SMILES): CCCCCCCCCCCCCCCCCCOP(=O)([O-])OCC[N+](C)(C)C [OCTADECYLPHOSPHONOCHOLINE]
- EC50 (Leishmania donovani [3]): 2400 nM

Structure (SMILES): CCCCCCCCCCCCCCCCCCOP(=O)([O-])OC1CC[N+](CC)(CC)CC1.O.O
- EC50 (Leishmania donovani [1]): 400 nM
- Ratio EC50 (Leishmania donovani [2]): 0.12
- selectivity ratio [4]: 11.7
- selectivity ratio [5]: 6.89
- ED50 (Leishmania donovani [8]): 35.3 mg/kg

Structure (SMILES): CCCCCCCCCCCCCCCCCCOCCOCCOP(=O)([O-])OCC[N+]1(C)CCCC1
- EC50 (Leishmania donovani [3]): 3360 nM

Structure (SMILES): CCCCCCCCCCCCCCCCCCOP(=O)([O-])OC1CC[N+](C)(CC)CC1 (configuration not stated)
- EC50 (Leishmania donovani [3]): 2710 nM

Structure (SMILES): CCCCCCCCCCCCCCCCOCC(COP(=O)([O-])OCC[N+](C)(C)C)OC (configuration not stated)
- EC50 (Leishmania donovani [3]): 3580 nM

Structure (SMILES): CCCCCCCCCCCCCCCCCCOP(=O)([O-])OC1CC2CCC(C1)[N+]2(C)C (configuration not stated)
- EC50 (Leishmania donovani [1]): 710 nM
- Ratio EC50 (Leishmania donovani [2]): 0.13

Structure (SMILES): CCCCCCCCCCCCCCCCCCOP(=O)([O-])OC1CC[N+](C)(C)CC1 [PERIFOSINE]
- EC50 (Leishmania donovani [3]): 3020 nM
- Ratio EC50 (Leishmania donovani [2]): 0.63
- ED50 (Leishmania donovani [9]): 25.2 mg/kg

Structure (SMILES): CCCCCCCCCCCCCCCCCCOP(=O)([O-])OC1CCC[N+](C)(C)C1 (configuration not stated)
- EC50 (Leishmania donovani [1]): 430 nM
- Ratio EC50 (Leishmania donovani [2]): 0.13

Structure (SMILES): CCCCCCCCCCCCCCCCOP(=O)([O-])OCC[N+](C)(C)C [MILTEFOSINE]
- EC50 (Leishmania donovani [3]): 5700 nM
- EC50 (Leishmania donovani [1]): 2040 nM
- selectivity ratio [4]: 5.48
- selectivity ratio [5]: 0.83
- ED50 (Leishmania donovani [9]): 10 mg/kg
- ED50 (Leishmania donovani [8]): 8.09 mg/kg
- ED50 (Leishmania donovani [10]): 7.72 mg/kg

Structure (SMILES): CCCCCCCCCCCCCCCCCCOCC(COP(=O)([O-])OCC[N+]1(C)CCCCC1)OC (configuration not stated)
- EC50 (Leishmania donovani [3]): 1790 nM
- EC50 (Leishmania donovani [1]): 1680 nM
- Ratio EC50 (Leishmania donovani [2]): 0.32

Structure (SMILES): CCCCCCCCCCCCCCCCCCOCC(COP(=O)([O-])OC1CC2CCC(C1)[N+]2(C)C)OC (configuration not stated)
- EC50 (Leishmania donovani [3]): 1690 nM

Structure (SMILES): CCCCCCCCCCCCCCCCCCOP(=O)([O-])OCC[N+](C)(C)C1CCCCC1.O
- EC50 (Leishmania donovani [1]): 1190 nM
- Ratio EC50 (Leishmania donovani [2]): 0.22

Structure (SMILES): CCCCCCCCCCCCCCCCCCOP(=O)([O-])OC1CC[N+](C)(Cc2ccccc2)CC1.O (configuration not stated)
- EC50 (Leishmania donovani [1]): 400 nM
- Ratio EC50 (Leishmania donovani [2]): 0.12
